Consider 34 compounds from patent publication US20240376084A1, “INHIBITORS OF ALPHA-HEMOLYSIN OF STAPHYLOCOCCUS AUREUS” (Helmholtz-Zentrum Fur Infektionsforschung GmbH, priority 2021, published 2024).

For the experiment, the target named is hemolysin alpha from Staphylococcus aureus (Staphylococcus aureus, UniProt P09616). The experiment is described as follows: cell-based.
Sequence of hemolysin alpha from Staphylococcus aureus (P09616 27-319 limits assumed): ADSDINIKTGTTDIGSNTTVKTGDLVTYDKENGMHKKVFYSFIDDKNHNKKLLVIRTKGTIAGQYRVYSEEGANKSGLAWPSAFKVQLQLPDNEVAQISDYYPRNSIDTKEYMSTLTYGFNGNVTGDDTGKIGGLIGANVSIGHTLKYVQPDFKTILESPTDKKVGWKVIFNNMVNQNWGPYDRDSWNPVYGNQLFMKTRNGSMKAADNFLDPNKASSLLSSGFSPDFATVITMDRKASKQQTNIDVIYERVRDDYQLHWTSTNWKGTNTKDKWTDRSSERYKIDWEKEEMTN
For `Cc1cc2[nH]c(=O)c(=O)[nH]c2cc1S(=O)(=O)Nc1cc(C)c(-c2cnn(C)c2)c(C)c1` [Compound 184, N-(3,5-dimethyl-4-(1-methyl-1H-pyrazol-4-yl)phenyl)-7-methyl-2,3-dioxo-1,2,3,4-tetrahydroquinoxaline-6-sulfonamide], the concentration for half-maximal inhibition (IC50) – broadly, the point on the concentration scale where inhibition reaches its midpoint – lay in the range of 1 to 3.5 µM. The same measure, in the same setting: the result for `Cc1ccc(NS(=O)(=O)c2cc3[nH]c(=O)c(=O)[nH]c3cc2C)cc1C` [Compound 185, N-(3,4-dimethylphenyl)-7-methyl-2,3-dioxo-1,2,3,4-tetrahydroquinoxaline-6-sulfonamide] reads 1 to 3.5 µM; that for `Cc1cc2[nH]c(=O)c(=O)[nH]c2cc1S(=O)(=O)Nc1ccc2ncccc2c1` [Compound 186, 7-methyl-2,3-dioxo-N-(quinolin-6-yl)-1,2,3,4-tetrahydroquinoxaline-6-sulfonamide], 1 to 3.5 µM. Still for that read-out and setting: for `Cc1cc2[nH]c(=O)c(=O)[nH]c2cc1S(=O)(=O)Nc1cc(C)c(-c2cn[nH]c2)c(C)c1` [Compound 187, N-(3,5-dimethyl-4-(1H-pyrazol-4-yl)phenyl)-7-methyl-2,3-dioxo-1,2,3,4-tetrahydroquinoxaline-6-sulfonamide] the value was 1 to 3.5 µM; for `Cc1cc2[nH]c(=O)c(=O)[nH]c2cc1S(=O)(=O)Nc1cc(C)c(-c2ccnn2C)c(C)c1` [Compound 188, N-(3,5-dimethyl-4-(1-methyl-1H-pyrazol-5-yl)phenyl)-7-methyl-2,3-dioxo-1,2,3,4-tetrahydroquinoxaline-6-sulfonamide], 1 to 3.5 µM; for `Cc1cc2[nH]c(=O)c(=O)[nH]c2cc1S(=O)(=O)Nc1ccc(-c2cncc(Cl)c2)c(Cl)c1` [Compound 189, N-(3-chloro-4-(5-chloropyridin-3-yl)phenyl)-7-methyl-2,3-dioxo-1,2,3,4-tetrahydroquinoxaline-6-sulfonamide], 0.03 to 0.1 µM.

For the compound `O=c1[nH]c2cc(C(F)(F)F)c(S(=O)(=O)Nc3ccc(OC(F)(F)F)cc3)cc2[nH]c1=O` [Compound 190, 2,3-Dioxo-N-(4-(trifluoromethoxy)phenyl)-7-trifluoromethyl-1,2,3,4-tetrahydroquinoxaline-6-sulfonamide], the 50% effective concentration (EC50) – broadly, the concentration needed to bring the measured effect to its halfway point – lay within 0.1 to 1 µM.

On to `O=c1[nH]c2cc([N+](=O)[O-])c(S(=O)(=O)Nc3ccc(OC(F)(F)F)cc3)cc2[nH]c1=O` [Compound 191, 7-nitro-2,3-dioxo-N-(4-(trifluoromethoxy)phenyl)-1,2,3,4-tetrahydroquinoxaline-6-sulfonamide], for which the EC50 was 0.1 to 1 µM. The same measure, in the same setting: the result for `O=c1[nH]c2cc(OC(F)(F)F)c(S(=O)(=O)Nc3ccc(OC(F)(F)F)cc3)cc2[nH]c1=O` [Compound 192, 2,3-dioxo-7-(trifluoromethoxy)-N-(4-(trifluoromethoxy)phenyl)-1,2,3,4-tetrahydroquinoxaline-6-sulfonamide] reads 0.1 to 1 µM. In the case of `COc1cc2[nH]c(=O)c(=O)[nH]c2cc1S(=O)(=O)Nc1ccc(OC(F)(F)F)cc1` [Compound 193, 7-methoxy-2,3-dioxo-N-(4-(trifluoromethoxy)phenyl)-1,2,3,4-tetrahydroquinoxaline-6-sulfonamide], the EC50 is 0.1 to 1 µM. Same read-out and setting: for `CC(C)(C)c1ccc(NS(=O)(=O)c2cc3[nH]c(=O)c(=O)[nH]c3cc2Br)cc1` [Compound 195, 7-bromo-N-(4-(tert-butyl)phenyl)-2,3-dioxo-1,2,3,4-tetrahydroquinoxaline-6-sulfonamide] the value was 1 to 3.5 µM; for `Cc1cc2[nH]c(=O)c(=O)[nH]c2cc1S(=O)(=O)Nc1ccc(N2CCCC2)c(Cl)c1` [Compound 196, N-(3-chloro-4-(pyrrolidin-1-yl)phenyl)-7-methyl-2,3-dioxo-1,2,3,4-tetrahydroquinoxaline-6-sulfonamide], 0.03 to 0.1 µM; for `Cc1cc2[nH]c(=O)c(=O)[nH]c2cc1S(=O)(=O)Nc1ccc(N2CCOCC2)c(Cl)c1` [Compound 200, N-(3-chloro-4-morpholinophenyl)-7-methyl-2,3-dioxo-1,2,3,4-tetrahydroquinoxaline-6-sulfonamide], 1 to 3.5 µM.

In turn, `Cc1cc2[nH]c(=O)c(=O)[nH]c2cc1S(=O)(=O)Nc1ccc(N2CCOCC2C)c(Cl)c1` (stereo not shown) [Compound 201, N-(3-chloro-4-(3-methylmorpholino)phenyl)-7-methyl-2,3-dioxo-1,2,3,4-tetrahydroquinoxaline-6-sulfonamide] registered an EC50 of 0.1 to 1 µM. The compound `Cc1cc2[nH]c(=O)c(=O)[nH]c2cc1S(=O)(=O)Nc1ccc(N2CCOC(C)C2)c(Cl)c1` (stereo not shown) [Compound 204, N-(3-chloro-4-(2-methylmorpholino)phenyl)-7-methyl-2,3-dioxo-1,2,3,4-tetrahydroquinoxaline-6-sulfonamide] gave an EC50 of 1 to 3.5 µM. The compound `Cc1cc2[nH]c(=O)c(=O)[nH]c2cc1S(=O)(=O)Nc1cnn(-c2ccccc2)c1` [Compound 207, 7-methyl-2,3-dioxo-N-(1-phenyl-1H-pyrazol-4-yl)-1,2,3,4-tetrahydroquinoxaline-6-sulfonamide] gave an EC50 of 1 to 3.5 µM. Take `Cc1cc2[nH]c(=O)c(=O)[nH]c2cc1S(=O)(=O)Nc1ccc(N2CCCOCC2)c(Cl)c1` [Compound 208, N-(3-chloro-4-(1,4-oxazepan-4-yl)phenyl)-7-methyl-2,3-dioxo-1,2,3,4-tetrahydroquinoxaline-6-sulfonamide]: the EC50 fell in the range of 1 to 3.5 µM. `Cc1cc2[nH]c(=O)c(=O)[nH]c2cc1S(=O)(=O)Nc1cc(Cl)c(-c2ccc(F)cc2)cn1` [Compound 212, N-(4-chloro-5-(4-fluorophenyl)pyridin-2-yl)-7-methyl-2,3-dioxo-1,2,3,4-tetrahydroquinoxaline-6-sulfonamide] displayed a concentration giving a half-maximal response (EC50) of 0.03 to 0.1 µM. On the same count and under the same terms, the result for `Cc1cc2[nH]c(=O)c(=O)[nH]c2cc1S(=O)(=O)Nc1cnc(-c2cccc(Cl)c2)c(Cl)c1` [Compound 213, N-(5-chloro-6-(3-chlorophenyl)pyridin-3-yl)-7-methyl-2,3-dioxo-1,2,3,4-tetrahydroquinoxaline-6-sulfonamide] reads 0.1 to 1 µM; that for `Cc1cc2[nH]c(=O)c(=O)[nH]c2cc1S(=O)(=O)Nc1cnc(-c2ccc(F)c(Cl)c2)c(Cl)c1` [Compound 214, N-(5-chloro-6-(3-chloro-4-fluorophenyl)pyridin-3-yl)-7-methyl-2,3-dioxo-1,2,3,4-tetrahydroquinoxaline-6-sulfonamide], 0.1 to 1 µM; that for `Cc1cc2[nH]c(=O)c(=O)[nH]c2cc1S(=O)(=O)Nc1cnc(-c2ccc(F)cc2)c(Cl)c1` [Compound 215, N-(5-chloro-6-(4-fluorophenyl)pyridin-3-yl)-7-methyl-2,3-dioxo-1,2,3,4-tetrahydroquinoxaline-6-sulfonamide], 0.03 to 0.1 µM. As for `CN(C)c1cc2[nH]c(=O)c(=O)[nH]c2cc1S(=O)(=O)Nc1ccc(OC(F)(F)F)cc1` [Compound 221, 7-(dimethylamino)-2,3-dioxo-N-(4-(trifluoromethoxy)phenyl)-1,2,3,4-tetrahydroquinoxaline-6-sulfonamide], the EC50 was 0.03 to 0.1 µM. For the compound `Cc1cc2[nH]c(=O)c(=O)[nH]c2cc1S(=O)(=O)Nc1ccc(OC(F)(F)F)cn1` [Compound 222, 7-methyl-2,3-dioxo-N-(5-(trifluoromethoxy)pyridin-2-yl)-1,2,3,4-tetrahydroquinoxaline-6-sulfonamide], the EC50 was 0.1 to 1 µM. Still for that read-out and setting: the result for `Cc1cc2[nH]c(=O)c(=O)[nH]c2cc1S(=O)(=O)Nc1ccc(OC(F)(F)F)nc1` [Compound 223, 7-methyl-2,3-dioxo-N-(6-(trifluoromethoxy)pyridin-3-yl)-1,2,3,4-tetrahydroquinoxaline-6-sulfonamide] reads 0.1 to 1 µM; that for `Cc1cc2[nH]c(=O)c(=O)[nH]c2cc1S(=O)(=O)Nc1ccc(-c2ccccc2)nc1` [Compound 224, 7-methyl-2,3-dioxo-N-(6-phenylpyridin-3-yl)-1,2,3,4-tetrahydroquinoxaline-6-sulfonamide], 0.1 to 1 µM. With `Cc1cc2[nH]c(=O)c(=O)[nH]c2cc1S(=O)(=O)Nc1cc(Cl)c(Br)cn1` [Compound 226, N-(5-bromo-4-chloropyridin-2-yl)-7-methyl-2,3-dioxo-1,2,3,4-tetrahydroquinoxaline-6-sulfonamide], the EC50 was 1 to 3.5 µM. Still for that read-out and setting: for `Cc1cc2[nH]c(=O)c(=O)[nH]c2cc1S(=O)(=O)Nc1ccc2c(ccn2C)c1` [Compound 228, 7-methyl-N-(1-methyl-1H-indol-5-yl)-2,3-dioxo-1,2,3,4-tetrahydroquinoxaline-6-sulfonamide] the value was 1 to 3.5 µM; for `Cc1cc2[nH]c(=O)c(=O)[nH]c2cc1S(=O)(=O)Nc1ccc2cccnc2c1` [Compound 231, 7-methyl-2,3-dioxo-N-(quinolin-7-yl)-1,2,3,4-tetrahydroquinoxaline-6-sulfonamide], 0.1 to 1 µM. Still for that read-out and setting: the result for `Cc1nc2cc(NS(=O)(=O)c3cc4[nH]c(=O)c(=O)[nH]c4cc3C)ccc2s1` [Compound 234, 7-methyl-N-(2-methylbenzo[d]thiazol-5-yl)-2,3-dioxo-1,2,3,4-tetrahydroquinoxaline-6-sulfonamide] reads 1 to 3.5 µM; that for `Cc1cc2[nH]c(=O)c(=O)[nH]c2cc1S(=O)(=O)Nc1cnc(Br)c(Cl)c1` [Compound 236, N-(6-bromo-5-chloropyridin-3-yl)-7-methyl-2,3-dioxo-1,2,3,4-tetrahydroquinoxaline-6-sulfonamide], 1 to 3.5 µM; that for `O=c1[nH]c2cc3c(cc2[nH]c1=O)S(=O)(=O)N(c1ccc(OC(F)(F)F)cc1)CCO3` [Compound 237], 0.1 to 1 µM. Turning to `Cc1cc2[nH]c(=O)c(=O)[nH]c2cc1S(=O)(=O)Nc1nc2ccccc2s1` [Compound 238, N-(benzo[d]thiazol-2-yl)-7-methyl-2,3-dioxo-1,2,3,4-tetrahydroquinoxaline-6-sulfonamide], the EC50 lay in the range of 0.1 to 1 µM.

For the compound `Cc1nc2ccc(NS(=O)(=O)c3cc4[nH]c(=O)c(=O)[nH]c4cc3C)cc2s1` [Compound 239, 7-methyl-N-(2-methylbenzo[d]thiazol-6-yl)-2,3-dioxo-1,2,3,4-tetrahydroquinoxaline-6-sulfonamide], the EC50 fell in the range of 1 to 3.5 µM. On the same count and under the same terms, the result for `Cc1cc2[nH]c(=O)c(=O)[nH]c2cc1S(=O)(=O)Nc1nc(C)c(-c2ccccc2)s1` [Compound 240, 7-methyl-N-(4-methyl-5-phenylthiazol-2-yl)-2,3-dioxo-1,2,3,4-tetrahydroquinoxaline-6-sulfonamide] reads 1 to 3.5 µM.
